According to ChEMBL document CHEMBL5126532, “Synthetic approaches and structural diversity of triazolylbutanols derived from voriconazole in the antifungal drug development” (Eur J Med Chem, 2022):
≈ marks a conversion by molar mass, not a printed value. Blank lines part the entries; values can stand above or below the compound they belong to.

Assays:
Assay type in all cases: functional
[1] = system: Candida albicans; assay: Antifungal activity against Candida albicans
[2] = system: Aspergillus fumigatus; assay: Antifungal activity against Aspergillus fumigatus TIMM1728 assessed as inhibition of fungal growth incubated for 20 hrs
[3] = system: Aspergillus fumigatus; assay: In vivo antifungal activity against Aspergillus fumigatus infected in CDF1 mouse treated po 4 hrs after injection twice daily for 2 days measured on day 10; settings: 48 h, time 2 day
[4] = system: Cryptococcus neoformans; assay: Antifungal activity against Cryptococcus neoformans TIMM1855 assessed as inhibition of fungal growth incubated for 68 hrs
[5] = system: Candida albicans; assay: In vivo antifungal activity against Candida albicans infected in CDF1 mouse treated po 4 hrs after injection twice daily for 2 days measured on day 10; settings: 48 h, time 2 day
[6] = system: Candida albicans; assay: Antifungal activity against Candida albicans TIMM1850 assessed as inhibition of fungal growth incubated for 20 hrs
[7] = system: Cryptococcus neoformans; assay: Antifungal activity against Cryptococcus neoformans TIMM1740 assessed as inhibition of fungal growth incubated for 68 hrs
[8] = system: Aspergillus fumigatus; assay: Antifungal activity against Aspergillus fumigatus IFO6344 assessed as inhibition of fungal growth incubated for 20 hrs
[9] = system: Candida albicans; assay: Antifungal activity against Candida albicans TIMM1756 assessed as inhibition of fungal growth incubated for 20 hrs
[10] = system: Aspergillus fumigatus; assay: Antifungal activity against Aspergillus fumigatus
[11] = system: Candida parapsilosis; assay: Antifungal activity against Candida parapsilosis; settings: Lodderomyces parapsilosis
[12] = system: Aspergillus flavus; assay: Antifungal activity against Aspergillus flavus SANK 18497 by 96-well microplate method
[13] = system: Candida albicans; assay: Antifungal activity against Candida albicans SANK 51486 by 96-well microplate method
[14] = system: Cryptococcus neoformans; assay: Antifungal activity against Cryptococcus neoformans TIMM 1855 by 96-well microplate method
[15] = system: Aspergillus fumigatus; assay: Antifungal activity against Aspergillus fumigatus SANK 10569 by 96-well microplate method
[16] = system: Candida albicans; assay: Antifungal activity against Candida albicans assessed as inhibition of fungal growth incubated for 20 hrs
[17] = system: Cryptococcus neoformans; assay: Antifungal activity against Cryptococcus neoformans
[18] = system: Candida; assay: Antifungal activity against Candida spp.
[19] = system: Aspergillus sp.; assay: Antifungal activity against Aspergillus sp

SMILES: C[C@@H](OCc1cc(-c2ccc(F)cc2Cl)no1)[C@](O)(Cn1cncn1)c1ccc(F)cc1F
MIC80 [1]: 0.0313 µg/mL (≈ 0.0654 µM)

SMILES: Cc1ccc(-c2cc(CO[C@H](C)[C@](O)(Cn3cncn3)c3ccc(F)cc3F)on2)cc1
MIC80 [1]: 0.0313 µg/mL (≈ 0.0711 µM)

SMILES: CC(C)n1ncn(-c2ccc(N3CCN([C@H](C)[C@](O)(Cn4cncn4)c4ccc(F)cc4F)CC3)nc2)c1=O
MIC [11]: 0.25 µg/mL (≈ 0.463 µM)

SMILES: C[C@@H](OCc1cc(-c2ccc(Cl)cc2F)no1)[C@](O)(Cn1cncn1)c1ccc(F)cc1F
MIC80 [1]: 0.0313 µg/mL (≈ 0.0654 µM)

SMILES: C[C@@H](S[C@H]1CO[C@H](/C=C/C=C/c2ccc(C#N)cc2F)OC1)[C@](O)(Cn1cncn1)c1c(F)cccc1F
MIC [12]: ≤ 0.008 µg/mL
MIC [13]: ≤ 0.008 µg/mL
MIC [14]: ≤ 0.008 µg/mL
MIC [15]: ≤ 0.008 µg/mL

SMILES: C[C@@H](OCc1cc(-c2cccc(Cl)c2)no1)[C@](O)(Cn1cncn1)c1ccc(F)cc1F
MIC80 [1]: 0.0313 µg/mL (≈ 0.0679 µM)

SMILES: C[C@@H](N1CCN(c2ccc(-n3cnn(Cc4cc(C(F)(F)F)cc(C(F)(F)F)c4C(F)(F)F)c3=O)cn2)CC1)[C@](O)(Cn1cncn1)c1ccc(F)cc1F
MIC [11]: 4 µg/mL (≈ 5.05 µM)

SMILES: CCC(=O)OC[n+]1cnn(C[C@](O)(c2ccc(F)cc2F)[C@@H](C)N2CCN(c3ccc(-n4cnnn4)cc3)C2=O)c1.[I-]
MIC [16]: 0.016 µg/mL

SMILES: Cc1ccccc1-c1cc(CO[C@H](C)[C@](O)(Cn2cncn2)c2ccc(F)cc2F)on1
MIC80 [1]: 0.0313 µg/mL (≈ 0.0711 µM)

SMILES: C[C@@H](N1CCN(c2ccc(-n3cnn(Cc4ccc(OC(F)(F)F)cc4)c3=O)cn2)CC1)[C@](O)(Cn1cncn1)c1ccc(F)cc1F
MIC [11]: 4 µg/mL (≈ 5.96 µM)

SMILES: C[C@@H](S[C@H]1CO[C@H](/C=C/C=C/c2ccc(C#N)cc2)OC1)[C@](O)(Cn1cncn1)c1ccc(F)cc1F
MIC [12]: ≤ 0.008 µg/mL
MIC [13]: ≤ 0.008 µg/mL
MIC [14]: ≤ 0.008 µg/mL
MIC [15]: ≤ 0.008 µg/mL

SMILES: C[C@@H](OCc1cc(-c2c(F)c(F)c(F)c(F)c2F)no1)[C@](O)(Cn1cncn1)c1ccc(F)cc1F
MIC80 [1]: 0.0313 µg/mL (≈ 0.0606 µM)

SMILES: C[C@@H](OCc1cc(-c2ccc(F)c(Cl)c2)no1)[C@](O)(Cn1cncn1)c1ccc(F)cc1F
MIC80 [1]: 0.0313 µg/mL (≈ 0.0654 µM)

SMILES: C[C@@H](S[C@H]1CO[C@H](/C=C/C=C/c2ccc(C#N)cc2F)OC1)[C@](O)(Cn1cncn1)c1cccc(F)c1F
MIC [12]: ≤ 0.008 µg/mL
MIC [13]: ≤ 0.008 µg/mL
MIC [14]: ≤ 0.008 µg/mL
MIC [15]: ≤ 0.008 µg/mL

SMILES: C[C@@H](OCc1cc(-c2ccccc2)no1)[C@](O)(Cn1cncn1)c1ccc(F)cc1F
MIC80 [1]: 0.0313 µg/mL (≈ 0.0734 µM)

SMILES: C[C@@H](N1C(=O)N(c2ccc(-n3cnnn3)cc2)CC1O)[C@](O)(Cn1cncn1)c1ccc(F)cc1F (stereo in doubt; 140b)
MIC [17]: 8 µg/mL (≈ 16.1 µM)
MIC [19]: 32 µg/mL (≈ 64.3 µM)

More lines, main results first:

MIC [2]: 0.25 µg/mL (≈ 0.52 µM)
MIC [4]: 0.016 µg/mL (≈ 0.0333 µM)
MIC [6]: ≤ 0.001 µg/mL
MIC [7]: 0.016 µg/mL (≈ 0.0333 µM)
MIC [8]: 0.25 µg/mL (≈ 0.52 µM)
MIC [9]: ≤ 0.001 µg/mL
SMILES: C[C@@H](N1CCN(c2ccc(-n3ccnn3)cc2)C1=O)[C@](O)(Cn1cncn1)c1ccc(F)cc1F
ED50 [3]: 4 mg/kg
ED50 [5]: 0.18 mg/kg

MIC [10]: 32 µg/mL (≈ 47.7 µM)
SMILES: C[C@@H](N1CCN(c2ccc(-n3cnn(Cc4ccc(OC(F)(F)F)cc4)c3=O)cc2)CC1)[C@](O)(Cn1cncn1)c1ccc(F)cc1F

MIC80 [1]: 0.0313 µg/mL (≈ 0.0693 µM)
SMILES: C[C@@H](OCc1cc(-c2ccc(C#N)cc2)no1)[C@](O)(Cn1cncn1)c1ccc(F)cc1F

MIC [11]: 4 µg/mL (≈ 6.1 µM)
SMILES: C[C@@H](N1CCN(c2ccc(-n3cnn(Cc4cccc(C(F)(F)F)c4)c3=O)nc2)CC1)[C@](O)(Cn1cncn1)c1ccc(F)cc1F

MIC [11]: 4 µg/mL (≈ 6.1 µM)
SMILES: C[C@@H](N1CCN(c2ccc(-n3cnn(Cc4ccc(C(F)(F)F)cc4)c3=O)cn2)CC1)[C@](O)(Cn1cncn1)c1ccc(F)cc1F

MIC [16]: 0.016 µg/mL
SMILES: CC(=O)NCCOC(=O)OC[n+]1cnn(C[C@](O)(c2ccc(F)cc2F)[C@@H](C)N2CCN(c3ccc(-n4cnnn4)cc3)C2=O)c1.[I-]

MIC80 [1]: 0.0313 µg/mL (≈ 0.0633 µM)
SMILES: C[C@@H](OCc1cc(-c2ccc(C(F)(F)F)cc2)no1)[C@](O)(Cn1cncn1)c1ccc(F)cc1F

MIC80 [1]: 0.0313 µg/mL (≈ 0.0704 µM)
SMILES: C[C@@H](OCc1cc(-c2cccc(F)c2)no1)[C@](O)(Cn1cncn1)c1ccc(F)cc1F

MIC [2]: 0.25 µg/mL (≈ 0.52 µM)
MIC [4]: 0.016 µg/mL (≈ 0.0333 µM)
MIC [6]: ≤ 0.001 µg/mL
MIC [7]: 0.016 µg/mL (≈ 0.0333 µM)
MIC [8]: 0.25 µg/mL (≈ 0.52 µM)
MIC [9]: ≤ 0.001 µg/mL
SMILES: C[C@@H](N1CCN(c2ccc(-n3cncn3)cc2)C1=O)[C@](O)(Cn1cncn1)c1ccc(F)cc1F
ED50 [3]: 4.4 mg/kg
ED50 [5]: 0.18 mg/kg

MIC80 [1]: 0.0313 µg/mL (≈ 0.0704 µM)
SMILES: C[C@@H](OCc1cc(-c2ccccc2F)no1)[C@](O)(Cn1cncn1)c1ccc(F)cc1F

MIC [11]: 4 µg/mL (≈ 5.96 µM)
SMILES: C[C@@H](N1CCN(c2ccc(-n3cnn(Cc4ccc(OC(F)(F)F)cc4)c3=O)nc2)CC1)[C@](O)(Cn1cncn1)c1ccc(F)cc1F

MIC [11]: 4 µg/mL (≈ 6.1 µM)
SMILES: C[C@@H](N1CCN(c2ccc(-n3cnn(Cc4ccc(C(F)(F)F)cc4)c3=O)nc2)CC1)[C@](O)(Cn1cncn1)c1ccc(F)cc1F

MIC ([17]; Cryptococcus neoformans, read-out: MIC): 8 µg/mL (≈ 16.1 µM)
MIC [18]: ≥ 0.25 µg/mL
MIC ([19]; Aspergillus sp., read-out: MIC): 32 µg/mL (≈ 64.3 µM)
SMILES: C[C@@H](N1C(=O)N(c2ccc(-n3cnnn3)cc2)CC1O)[C@](O)(Cn1cncn1)c1ccc(F)cc1F (stereo in doubt; 140a)
